Data from patent US10343974B1, “Cyclohexanol ethers as mediterranean fruit fly attractants” (The United States of America, as Represented by the …, priority 2018, dated 2019).

tested on: Mediterranean fruit flies; experiment: Field cage bioassay: attraction of male Mediterranean fruit flies to Jackson traps baited with PVC plugs; format: in vivo, Ceratitis capitata; details: grand mean capture ± 2 pooled standard deviations; ~100 mg PVC plug with ~40% compound in Jackson trap; screened field cage, 24-hour period; 150 male flies released per cage; same letter = not significantly different (P >0.05)
Description: Assessment of Biological Properties: Compounds were assessed for the ability to attract Mediterranean fruit flies in an enclosed field cage.
Formulation of compounds on PVC disks: All test compounds were >95% pure by GC-MS, except for (1R*,2R*,5R*)-sec-butyl 5-methoxy-2-methylcyclohexanecarboxylate which was tested as a mixture of diastereomers due to the use of (±)-2-butanol in the formation of the ester, and were formulated as ˜100 mg polymeric plugs containing ˜40% by mass of a compound of Formula (I). A typical protocol dissolved polyvinyl chloride (PVC) (864 mg), dibutyl phthalate (DBP) (432 mg), dioctyl phthalate (DOP) (432 mg), (1R*,2R*,5R*)-ethyl 5-methoxy-2-methylcyclohexanecarboxylate (1) (1.152 g) in THF (8.64 g). The mixture was then pipetted (˜400 mg) into respective porcelain wells. The THF was allowed to evaporate by warming the porcelain plate at 40° C. for 15 minutes, and then standing at room temperature until a constant weigh was achieved, to afford ˜26 PVC-attractant disks with a mass of 104.0±3.4 mg, (x±s).
Bioassays: Compounds were evaluated in screened field cages (3×3×2.5 meters) over a 24-hour period. Each field cage housed a single carousel, centered on the ceiling about 2 meters above the floor of the enclosure, which rotated (˜1 revolution/min) 8 equally-spaced Jackson traps. A polymeric plug containing a test compound was placed in a small basket in each Jackson trap with a sticky insert to record the number of fly catches. Test compounds (6) were screened together with two “standard” attractants, TML (FarmaTech, USA) and (±)-CER-B1 (prepared according to Khrimian, A., et al., Tetrahedron, 59: 5475 (2003)). A typical experiment (1) used 3 cages and began between 9-10 am each day, (2) TML and (±)-CER-B were arranged at two directly opposing poles of the carousel with 6 test compounds (3 on each side of TML and (±)-CER-B1) randomly placed relative to the standards, (3) 6 randomly-selected patterns were tested over a 2-day period, with the same sequence of patterns repeated three times (days 1 & 2, days 3 & 4, and days 5 & 6) for a total of 3 replicates, (4) each 2-day period (days 1 & 2, days 3 & 4, and days 5 & 6) used a different cohort of 7-8 day old laboratory reared male Mediterranean fruit flies (n=3), and (5) 150 male Mediterranean fruit flies were released each morning per 24-h cage bioassay for a total of 900 flies per cohort and 2700 flies during the entire testing period. A fresh lure was used for each cage experiment (n=18). Mean fly catch numbers are depicted in the table below.
For each cohort, a single-factor ANOVAs was applied to test the null hypothesis that the mean capture of a particular lure across both days (six trials total, three each day) could be used to estimate attraction. […] An additional single-factor ANOVAs was applied to test the null hypothesis that the grand mean capture of a particular lure could be used to estimate attraction, independent of the cohort. Again, none of the lure-respective ANOVAs were significant, a result that provided evidence to support congruence in the biological response across all cages, days, and cohorts. Also depicted in the table below, the grand mean capture ±2 pooled standard deviations (2 spooled) (Skoog, D. and Leary, J., Principles of Instrumental Analysis, John Wiley & Sons, Eds: New York, 1992). In general, the most attractive compounds in the above bioassay captured a similar (statistically equivalent) or greater number of flies relative to trimedlure.

Compound | Mean Catch per replicate
CO[C@@H]1CC[C@@H](C)[C@H](C(=O)OCC(F)(F)F)C1 (relative stereo) [(1R*,2R*,5R*)-2,2,2-trifluoroethyl 5-methoxy-2-methylcyclohexanecarboxylate] | 94.0 ± 11.5 days
CCCOC(=O)[C@@H]1C[C@H](OC)CC[C@H]1C (relative stereo) [(1R*,2R*,5R*)-propyl 5-methoxy-2-methylcyclohexanecarboxylate] | 38.0 ± 9.7b
CO[C@@H]1CC[C@@H](C)[C@H](C(=O)OC(C)(C)C)C1 (relative stereo) [(1R*,2R*,5R*)-tert-butyl 5-methoxy-2-methylcyclohexanecarboxylate] | 9.0 ± 2.8c
CCC(C)OC(=O)[C@@H]1C[C@H](OC)CC[C@H]1C (relative stereo) [(1R*,2R*,5R*)-sec-butyl 5-methoxy-2-methylcyclohexanecarboxylate] | 13.7 ± 3.0c
CCOC(=O)[C@@H]1C[C@H](I)CC[C@H]1C (relative stereo) [Ceralure-B1, (1R*,2R*,5R*)-ethyl 5-iodo-2-methylcyclohexanecarboxylate, reference compound] | 94.0 ± 10.7 days
CO[C@@H]1CC[C@@H](C)[C@H](C(=O)OC(C)C)C1 (relative stereo) [(1R*,2R*,5R*)-isopropyl 5-methoxy-2-methylcyclohexanecarboxylate] | 64.7 ± 10.2a
CCOC(=O)[C@@H]1C[C@H](OC)CC[C@H]1C (relative stereo) [(1R*,2R*,5R*)-ethyl 5-methoxy-2-methylcyclohexanecarboxylate] | 91.0 ± 9.8 days
tert-butyl 4- (and 5)-chloro-2-methylcyclohexanecarboxylate [Trimedlure, reference compound] | 82.7 ± 11.3 days

tested on: not given; experiment: not given; details: DeMilo 1992; cited from earlier work

Compound | stability in formulations and the environment
ethyl esters of 4 (and 5)-iodo-2-methylcyclohexane-1-carboxylate [CER] | unstable

tested on: male medfly; experiment: not given; details: classification in the literature; cited from earlier work

Compound | attractant strength for male medfly
tert-butyl 4- (and 5)-chloro-2-methylcyclohexanecarboxylate [Trimedlure, reference compound] | weak attractant
